Data published in US20220193272A1, “Bleeding Detection Method” (Ethicon, Inc., priority 2020, published 2022).
Entries after “also recorded” stand apart in the source; their conditions may differ. Peptide text beside a SMILES is read from it. * marks the point of attachment. AMC = Cc1cc(=O)oc2cc(N*)ccc12; Bz = O=C(c1ccccc1)*

Columns and labels:
thrombin [1] = target: T1, thrombin (Homo sapiens, UniProt P00734); assay: Detection of thrombin activity on chromogenic substrate coated onto cellulose matrix; assay type: biochemical; details: 1 mL of 2 mg/mL substrate sprayed on matrix; EVICEL thrombin applied; 30 sec at room temperature; dihydrochloride
T1 construct: purchased EVICEL® fibrin sealant kit product code 3905
Description: S-2238 chromogenic thrombin substrate ((H-D-Phenylalanyl-L-pipecolyl-L-arginine-p-nitroaniline dihydrochloride) which is available from Chromgenix, Instrumentation Laboratory Company, Bedford, Mass., USA catalog number: 82032439), 25 mg, was dissolved in 12.5 mL of water. The resulting concentration was 2 mg/mL (25 mg in 12.5 mL). 1 mL of 2 mg/mL of the chromogenic substrate was sprayed onto one side of a white cellulose matrix (paper towel Scott C-Fold) approx. 4 in×6 cm in using the EVICEL® ASA tip (product code 3921S). The other side was not coated or sprayed with the substrate.
A kit of EVICEL® (product code 3905) was thawed in a 37° C. water bath for 5 min. […] This was repeated on the substrate coated side and also applied in duplicate on the non-substrate coated side.
As a control, thrombin was applied to the non-coated side of the matrix and no color changed was observed.

thrombin [2] = target: T1, thrombin; assay: Thrombin activity on chromogenic substrate in solution (dip stick standard tubes); assay type: biochemical; details: 0.2 mL of 2 mg/mL substrate + 1.8 mL water, about 2 min at room temperature
Description: A “dip stick” can be dabbed onto a tissue surface that is suspected of bleeding (FIG. 2). The end of the dip stick can then be placed into a solution containing the visualization agent (chromogenic substrate). The amount of the thrombin present in the dip stick is determined by comparison with a standard curve obtained by running similar tests with known thrombin concentrations.
For example, 0.2 mL of the 2 mg/mL chromogenic substrate was combined with 1.8 mL of water in a […] in 2 borosilicate glass tubes. The solution was gently mixed to distribute the substrate. A third tube was filled with 2 mL of water as an untreated control. To one of the tubes with the diluted substrate, 100 uL of 1000 IU/mL thrombin was added and 10 uL was added to the other tube. After about 2 min at room temperature, a photo was captured of the tubes.
The tube with water is shown as a reference. The intensity of the color change reflected the amount of thrombin.

thrombin [3] = target: T1, thrombin; assay: Detection of chromogenic substrate product in plasma activated by thromboplastin reagent; assay type: biochemical; details: 0.4 mL PNP + 0.2 mL thromboplastin reagent with calcium + 0.2 mL of 2 mg/mL substrate; room temperature
Description: Plasma has a background color (straw color). To test whether the product of the chromogenic substrate can be detected in plasma, 0.4 mL pooled normal plasma (PNP from George King Biomedical) was activated by a thromboplastin reagent (0.2 mL, Neoplastin CL plus product number 00375) with calcium to allow thrombin generation.
Either 0.2 mL saline (as a control) or 0.2 mL of 2 mg/mL of the chromogenic substrate was added to the tube and mixed on the tube rocker.
Evidence of clot formation was present after approx. 30 sec at room temperature. In view of the presence of fibrinogen in plasma, complete clot formation, i.e. solid/stable clot, occurred at approx. 2 min at room temperature.

pooled normal plasma = assay: Clotting of pooled normal plasma with PT reagent in presence of substrate; assay type: biochemical; details: 0.5 mL PNP + 0.10 mL stock (5 mg/mL in DMSO) + 1.0 mL PT reagent; room temperature
Description: (§1) Pooled normal plasma (PNP) was purchased from George King Biomedical was thawed at 37 C for 5 min. 0.5 mL of PNP was aliquoted into 3-10×75 mm borosilicate glass tubes. To each to glass tube, 0.10 mL stock fluorescent substrate or 0.10 mL stock TBS was added. Tubes were labeled accordingly.
(§2) 1.0 mL of PT reagent (Diagnostica Stago, STA Neoplastine Cl Plus containing calcium) was dispensed into the three tubes.
The blank/TBS control clotted in approx. 10 sec (as expected for a PT clotting time).

thrombin [4] = target: T1, thrombin; assay: Detection of thrombin in solution, repeated with higher amounts of substrate; assay type: biochemical; set-up: key to fluorescence signal, relative rank: +++: strongest fluorescence signal; ++: signal was greater; +: fluorescence signal was lowest; details: 100 uL at 5 mg/mL in DMSO [500 ug total substrate], 100 IU/mL thrombin, approx. 5 min
Description: 100 IU/mL of thrombin was used.
To 1.0 mL of 100 IU/mL thrombin in saline, 100 uL of Sigma substrate at 5 mg/mL in DMSO was added [500 ug total substrate].
To 1.0 mL of 100 IU/mL thrombin in saline, 100 uL of HTI substrate diluted in TBS at 0.25 mg/mL (50 uL HTI manufacture's stock and 1.5 mL TBS, i.e. 1:30 dilution) was added [25 ug total substrate].
To 1.0 mL of 100 IU/mL thrombin in saline, 10 uL of HTI manufacture's stock (7.5 mg/mL in DMSO) was added [75 ug total substrate]
Images of tubes were captured under various lighting conditions (using various light sources) and responses were compared.
The experiments were carried out at room temperature.

thrombin [5] = assay: In vivo detection of thrombin at bleeding site, canine model with liver and spleen abrasions
Description: In this in vivo study, the ability to detect thrombin on a surface in a live animal after creating a bleeding defect was assessed in a canine model with liver and spleen abrasions.
Diffuse/oozing bleeding abrasion defect was created using cautery tip cleaning pad.
0.5 mL of Sigma fluorogenic substrate (Stock solution 5 mg/mL concentration in DMSO protected from light) was sprayed onto bleeding site and visualized with flashlight (356 nm) 2-3 min after application.

thrombin [6] = target: T1, thrombin; assay: Detection of thrombin generated in plasma with fluorogenic substrates; assay type: biochemical
Description: as §1, §2
Images of tubes were captured while using shining light (using various light sources) and response was compared for different substrates.

thrombin [7] = target: T1, thrombin; assay: Detection of thrombin in solution with fluorescent substrates; assay type: biochemical
Description: 1. 2 mL of 0, 10 IU/mL and 100 IU/mL thrombin in saline (none, low, and high thrombin) was prepared in duplicates and tubes were labeled accordingly. Stock of EVICEL® thrombin is about 1000 IU/mL.
2. A defined amount of thrombin substrate was added to thrombin solutions as follows and fluorescence of the mixture was evaluated. The substrate stock solutions were diluted 1:10 in Tris Buffered saline (TBS) buffer (180 uL TBS and 20 uL of stock substrate solution). TBS buffer comprises 20 mM Tris and 150 mM sodium chloride, and is adjusted to pH 7.4. 0.05 mL of the diluted stock solution (1:10 dilution) was added to the 2 mL of thrombin prepared in step 1, mixed at room temperature, and incubated for about 3 mins.
3. Images of tubes were captured while shining with light (using various light emitting sources) and responses were compared for different amounts of thrombin.

thrombin [8] = target: T1, thrombin; assay: Detection of thrombin on a surface (cellulose matrix) with fluorogenic substrates; assay type: biochemical; details: approx. 60 min after spraying; 365 nm flashlight only; after moving the matrix out of its original position
Description: 2 mL solutions of 0, 10 IU/mL and 100 IU/mL thrombin in saline (none, and low and high thrombin) were prepared using a stock solution of EVICEL® thrombin of about 1000 IU/mL. 1 mL of each thrombin dilution was sprayed onto white cellulose matrix (paper towel Scott C-Fold) in a designated area.
Immediately a defined amount of thrombin substrate, prepared as follows, was sprayed on the thrombin and coated cellulose matrix and fluorescence of the mixture was evaluated. The substrate stock solutions were diluted 1:10 in TBS (using 900 uL TBS and 100 uL of stock substrate solution). 1.0 mL of the diluted stock solution (1:10 dilution) was sprayed across all three regions of the cellulose matrix coated with thrombin at different levels.
Images of cellulose matrix under various lighting conditions (with various light sources) were captured and the response was compared for different amounts of thrombin and substrates. The Experiments were carried out at room temperature.

| fluorescence signal, relative rank (thrombin [4]; 365 nm flashlight only) | fluorescence signal (thrombin [4]; ambient overhead lighting and 365 nm flashlight) | color change in plasma (thrombin [6]; 5 min after combining PNP, substrate and PT reagent, ambient overhead lighting only) | fluorescence signal in plasma (thrombin [6]; approx. 5 min, 365 nm flashlight only, 0.10 mL stock (Sigma 5 mg/mL in DMSO; HTI 0.25 mg/mL in TBS)) | fluorescence in plasma (thrombin [6]; approx. 5 min, ambient overhead lighting and 365 nm flashlight, 0.10 mL stock (Sigma 5 mg/mL in DMSO)) | time within which all of the substrate was cleaved (thrombin [7]; 100 IU/mL thrombin, no change in intensity between 3 min and 60 min) [min] | fluorescence (thrombin [7]; approx. 3 min, ambient overhead lighting and 365 nm flashlight, 100 IU/mL thrombin) | color change (thrombin [7]; approx. 3 min, ambient overhead lighting only, thrombin 100, 10 and 0 IU/mL) | fluorescence (thrombin [7]; approx. 60 min, 365 nm flashlight only, 100 IU/mL thrombin) | fluorescence on the surface underneath the cellulose matrix (thrombin [8]) | SMILES | coloration on substrate coated side of cellulose matrix (thrombin [1]) | coloration of tube (thrombin [2]; 10 uL of 1000 IU/mL thrombin) | coloration of tube (thrombin [2]; 100 uL of 1000 IU/mL thrombin) | yellow coloration/hue of clotted plasma compared with the saline control (thrombin [3]) | time sample remained fluid before clotting (pooled normal plasma) | fluorescence signal at bleeding site (thrombin [5]; 0.5 mL of 5 mg/mL in DMSO sprayed onto bleeding site, flashlight (356 nm) 2-3 min after application, no exogenous thrombin added) | detection of bleeding in a liver abrasion model (thrombin [5]; canine, sprayed onto bleeding site) |
| --- | --- | --- | --- | --- | --- | --- | --- | --- | --- | --- | --- | --- | --- | --- | --- | --- | --- |
| – | – | – | – | – | – | – | – | – | – | Cl.Cl.NC(N)=NCCC[C@H](NC(=O)[C@@H]1CCCCN1C(=O)[C@H](N)Cc1ccccc1)C(=O)Nc1ccc([N+](=O)[O-])cc1 [S-2238, H-D-Phenylalanyl-L-pipecolyl-L-arginine-p-nitroaniline dihydrochloride] | yellow coloration (dark streaks) was evident; also recorded: change in coloration was evident | faint yellow coloration | yellow coloration | significantly stronger | – | – | – |
| +++ | strongest | no color change was observed | strong fluorescence signal | strong fluorescence | ≤ 3 | displaying fluorescence | no color change observed | displaying fluorescence | spots of fluorescence could be seen | Cc1cc(=O)oc2cc(NC(=O)[C@H](CCCN=C(N)N)NC(=O)[C@@H](NC(=O)[C@H](Cc3ccccc3)NC(=O)c3ccccc3)C(C)C)ccc12 [Sigma substrate] (Bz-Phe-Val-Arg-{AMC}) | – | – | – | – | approx. 3 min | could be detected | enabled detection of bleeding |
